# Assay results reported in PubChem BioAssay (NCI).
#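 All cell lines were grown in 96-well plates and treated with compound for 48 hours. Definition used: TGI = concentration required for complete inhibition of growth.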
# Experiments:
# Experiment in all cases: NCI tumour cell line growth inhibition, 48 h
# UACC-257 melanoma = tested on: UACC-257 melanoma
# TK-10 renal = tested on: TK-10 renal
# HOP-92 NSCLC = tested on: HOP-92 NSCLC
# SF-295 CNS = tested on: SF-295 CNS
# HCT-15 colon = tested on: HCT-15 colon
# UO-31 renal = tested on: UO-31 renal
# HCC-2998 colon = tested on: HCC-2998 colon
# MOLT-4 leukemia = tested on: MOLT-4 leukemia
# A498 renal = tested on: A498 renal
# OVCAR-4 ovarian = tested on: OVCAR-4 ovarian
# SNB-19 CNS = tested on: SNB-19 CNS
# HS 578T breast = tested on: HS 578T breast
# SK-MEL-28 melanoma = tested on: SK-MEL-28 melanoma
# HCT-116 colon = tested on: HCT-116 colon
# HOP-62 NSCLC = tested on: HOP-62 NSCLC
# MDA-MB-231 breast = tested on: MDA-MB-231 breast
# COLO 205 colon = tested on: COLO 205 colon
# OVCAR-5 ovarian = tested on: OVCAR-5 ovarian
# ACHN renal = tested on: ACHN renal
# NCI/ADR-RES ovarian = tested on: NCI/ADR-RES ovarian
# M14 melanoma = tested on: M14 melanoma
# HL-60(TB) leukemia = tested on: HL-60(TB) leukemia
# MALME-3M melanoma = tested on: MALME-3M melanoma
# IGROV1 ovarian = tested on: IGROV1 ovarian
# SN12C renal = tested on: SN12C renal
# CCRF-CEM leukemia = tested on: CCRF-CEM leukemia
# K-562 leukemia = tested on: K-562 leukemia
# NCI-H522 lung = tested on: NCI-H522 lung
# UACC-62 melanoma = tested on: UACC-62 melanoma
# BT-549 breast = tested on: BT-549 breast
# PC-3 prostate = tested on: PC-3 prostate
# A549 NSCLC = tested on: A549 NSCLC
# SK-MEL-2 melanoma = tested on: SK-MEL-2 melanoma
# HT29 colon = tested on: HT29 colon
# EKVX NSCLC = tested on: EKVX NSCLC
# U251 CNS = tested on: U251 CNS
# NCI-H226 lung = tested on: NCI-H226 lung
# MDA-MB-435 = tested on: MDA-MB-435
# OVCAR-3 ovarian = tested on: OVCAR-3 ovarian
# KM12 colon = tested on: KM12 colon
# SK-MEL-5 melanoma = tested on: SK-MEL-5 melanoma
# SR leukemia = tested on: SR leukemia
# NCI-H460 lung = tested on: NCI-H460 lung
# OVCAR-8 ovarian = tested on: OVCAR-8 ovarian
# DU-145 prostate = tested on: DU-145 prostate
# CAKI-1 renal = tested on: CAKI-1 renal
# NCI-H23 lung = tested on: NCI-H23 lung
# SF-539 CNS = tested on: SF-539 CNS
# SF-268 CNS = tested on: SF-268 CNS
# SK-OV-3 ovarian = tested on: SK-OV-3 ovarian
# SW-620 colon = tested on: SW-620 colon
# LOX IMVI melanoma = tested on: LOX IMVI melanoma
# T-47D breast = tested on: T-47D breast
# MDA-N = tested on: MDA-N
# MCF7 breast = tested on: MCF7 breast
# 786-0 renal = tested on: 786-0 renal
# RPMI-8226 leukemia = tested on: RPMI-8226 leukemia
# SNB-75 CNS = tested on: SNB-75 CNS
# RXF 393 renal = tested on: RXF 393 renal
structure (smiles),measurement,setting,value
O=C(O)c1nc2cc(C(F)(F)F)ccc2[nH]c1=O,TGI,UACC-257 melanoma,> 100 µM
same,TGI,TK-10 renal,> 100 µM
same,TGI,HOP-92 NSCLC,> 100 µM
same,TGI,SF-295 CNS,> 100 µM
same,TGI,HCT-15 colon,> 100 µM
same,TGI,UO-31 renal,> 100 µM
same,TGI,HCC-2998 colon,> 100 µM
same,TGI,MOLT-4 leukemia,> 100 µM
same,TGI,A498 renal,> 100 µM
same,TGI,OVCAR-4 ovarian,> 100 µM
same,TGI,SNB-19 CNS,> 100 µM
same,TGI,HS 578T breast,> 100 µM
same,TGI,SK-MEL-28 melanoma,> 100 µM
same,TGI,HCT-116 colon,> 100 µM
same,TGI,HOP-62 NSCLC,> 100 µM
same,TGI,MDA-MB-231 breast,> 100 µM
same,TGI,COLO 205 colon,> 100 µM
same,TGI,OVCAR-5 ovarian,> 100 µM
same,TGI,ACHN renal,> 100 µM
same,TGI,NCI/ADR-RES ovarian,> 100 µM
same,TGI,M14 melanoma,> 100 µM
same,TGI,HL-60(TB) leukemia,> 100 µM
same,TGI,MALME-3M melanoma,> 100 µM
same,TGI,IGROV1 ovarian,> 100 µM
same,TGI,SN12C renal,> 100 µM
same,TGI,CCRF-CEM leukemia,> 100 µM
same,TGI,K-562 leukemia,> 100 µM
same,TGI,NCI-H522 lung,> 100 µM
same,TGI,UACC-62 melanoma,> 100 µM
same,TGI,BT-549 breast,> 100 µM
same,TGI,PC-3 prostate,> 100 µM
same,TGI,A549 NSCLC,> 100 µM
same,TGI,SK-MEL-2 melanoma,> 100 µM
same,TGI,HT29 colon,> 100 µM
same,TGI,EKVX NSCLC,> 100 µM
same,TGI,U251 CNS,> 100 µM
same,TGI,NCI-H226 lung,> 100 µM
same,TGI,MDA-MB-435,> 100 µM
same,TGI,OVCAR-3 ovarian,> 100 µM
same,TGI,KM12 colon,> 100 µM
same,TGI,SK-MEL-5 melanoma,> 100 µM
same,TGI,SR leukemia,> 100 µM
same,TGI,NCI-H460 lung,> 100 µM
same,TGI,OVCAR-8 ovarian,> 100 µM
same,TGI,DU-145 prostate,> 100 µM
same,TGI,CAKI-1 renal,> 100 µM
same,TGI,NCI-H23 lung,> 100 µM
same,TGI,SF-539 CNS,> 100 µM
same,TGI,SF-268 CNS,> 100 µM
same,TGI,SK-OV-3 ovarian,> 100 µM
same,TGI,SW-620 colon,> 100 µM
same,TGI,LOX IMVI melanoma,> 100 µM
same,TGI,T-47D breast,> 100 µM
same,TGI,MDA-N,> 100 µM
same,TGI,MCF7 breast,> 100 µM
same,TGI,786-0 renal,> 100 µM
same,TGI,RPMI-8226 leukemia,> 100 µM
O=C(Oc1ccc(OC(Oc2ccccc2)c2ccccc2)cc1)c1ccccc1 (stereo not drawn),TGI,UACC-257 melanoma,> 31.6 µM
same,TGI,TK-10 renal,> 31.6 µM
same,TGI,SF-295 CNS,25.8 µM
same,TGI,UO-31 renal,> 31.6 µM
same,TGI,HCC-2998 colon,22 µM
same,TGI,MOLT-4 leukemia,> 31.6 µM
same,TGI,A498 renal,23.8 µM
same,TGI,OVCAR-4 ovarian,> 31.6 µM
same,TGI,SNB-19 CNS,> 31.6 µM
same,TGI,HS 578T breast,> 31.6 µM
same,TGI,SK-MEL-28 melanoma,31 µM
same,TGI,HCT-116 colon,29.2 µM
same,TGI,HOP-62 NSCLC,19 µM
same,TGI,MDA-MB-231 breast,> 31.6 µM
same,TGI,COLO 205 colon,> 31.6 µM
same,TGI,OVCAR-5 ovarian,> 100 µM
same,TGI,ACHN renal,> 31.6 µM
same,TGI,NCI/ADR-RES ovarian,> 31.6 µM
same,TGI,M14 melanoma,> 31.6 µM
same,TGI,HL-60(TB) leukemia,> 31.6 µM
same,TGI,MALME-3M melanoma,18.8 µM
same,TGI,IGROV1 ovarian,23.4 µM
same,TGI,SN12C renal,> 31.6 µM
same,TGI,SNB-75 CNS,> 31.6 µM
same,TGI,CCRF-CEM leukemia,> 31.6 µM
same,TGI,K-562 leukemia,> 31.6 µM
same,TGI,NCI-H522 lung,> 100 µM
same,TGI,UACC-62 melanoma,> 31.6 µM
same,TGI,BT-549 breast,> 31.6 µM
same,TGI,RXF 393 renal,> 100 µM
same,TGI,PC-3 prostate,> 31.6 µM
same,TGI,A549 NSCLC,> 31.6 µM
same,TGI,SK-MEL-2 melanoma,36.6 µM
same,TGI,HT29 colon,> 31.6 µM
same,TGI,EKVX NSCLC,> 31.6 µM
same,TGI,U251 CNS,> 100 µM
same,TGI,NCI-H226 lung,> 31.6 µM
same,TGI,MDA-MB-435,> 31.6 µM
same,TGI,OVCAR-3 ovarian,> 31.6 µM
same,TGI,KM12 colon,> 31.6 µM
same,TGI,SK-MEL-5 melanoma,> 31.6 µM
same,TGI,SR leukemia,> 31.6 µM
same,TGI,NCI-H460 lung,> 100 µM
same,TGI,OVCAR-8 ovarian,> 31.6 µM
same,TGI,DU-145 prostate,> 31.6 µM
same,TGI,NCI-H23 lung,24.4 µM
same,TGI,SF-539 CNS,> 31.6 µM
same,TGI,SF-268 CNS,23 µM
same,TGI,SK-OV-3 ovarian,> 31.6 µM
same,TGI,SW-620 colon,> 31.6 µM
same,TGI,LOX IMVI melanoma,> 31.6 µM
same,TGI,T-47D breast,> 100 µM
same,TGI,MDA-N,> 31.6 µM
same,TGI,MCF7 breast,> 31.6 µM
same,TGI,786-0 renal,> 31.6 µM
same,TGI,RPMI-8226 leukemia,24.1 µM
